The subject of one assay is α5^+ HT29 cells. The experiment in a line: Cell adhesion assay, adhesion to fibronectin. The class given is cell-based, human. An excerpt:
(§1) HT29 integrin α5β1^+ cells, integrin α5β1^− colon carcinoma cells (Varner et al., Mol. Biol. Cell 6:725–740 (1995)), and chick embryo fibroblasts (CEF's) were maintained in DMEM high glucose supplemented with 10% fetal bovine serum (FBS) and gentamycin. Human umbilical vein endothelial cells (HUVEC's) were maintained in M199 medium containing sodium bicarbonate, HEPES, heparin, endothelial cell growth supplement, 20% FBS and gentamycin. Culture media and reagents were from Irvine Scientific (Irvine, Calif.).
(§2) The wells of 48 well culture dishes (Costar, Inc.) were coated with 1 μg/ml vitronectin, 2 μg/ml fibronectin (chick embryo fibroblasts and HUVEC's) or 10 μg/ml fibronectin (HT29-α5^+ cells) for 1 hr at 37° C., then blocked with 2% heat denatured BSA in PBS for 1 hr. Fifty thousand cells in 250 μl of adhesion buffer were added to triplicate wells containing 250 μl of a solution of 50 μg/ml of an anti-α5β1 function blocking antibody (NKI-SAM-1, JBS5 or IIA1), 50 μg/ml of an anti-α5β1 non-function blocking antibody (HA5 or VC5; Pharmingen, Inc.; San Diego Calif.), 10 μM cyclic peptides (Koivunen et al., J. Biol. Chem. 268:20205–20210 (1993); Koivunen et al., J. Cell Biol. 124:373380 (1994)), 0–10 μM SJ749 ((S)-2-{(2,4,6-trimethylphenyl)sulfonyl}amino-3{7-benzyloxycarbonyl-8-(2-pyridinylaminomethyl)-1-oxa-2,7-diazaspiro-{4,4}-non-2-en-3-yl}carbonylamino}propionic acid)), 50 μg/ml of LM609, an anti-αVβ3 function blocking antibody, 50 μg/ml P4C10, an anti-β1 function blocking antibody, 50 μg/ml of an anti-fibronectin cell binding domain monoclonal antibody or 50 μg/ml of an anti-fibronectin N-terminus monoclonal antibody in adhesion buffer (HEPES buffered Hanks balanced salt solution, HBSS, containing 1% BSA, 2 mM MgCl2, 2 mM CaCl2 and 0.2 mM MnCl2).
Cells were allowed to adhere to dishes for 20 min at 37° C. Nonadherent cells were removed by washing each well four times with 500 μl of warm adhesion buffer. […] Crystal violet was extracted by incubation for 15 min in 10% acetic acid and absorbance at 562 nm determined as an indicator of number of cells bound. […]

In assay [1] the test system is Human umbilical vein endothelial cells (HUVEC's). The experiment in a line: Cell adhesion assay, adhesion to fibronectin. It counts as cell-based.
Description: as §1, §2
(§3) Cells were allowed to adhere to dishes for 20 min at 37° C. Nonadherent cells were removed by washing each well four times with 500 μl of warm adhesion buffer. Adherent cells were then fixed for 15 min with 3.7% paraformaldehyde in PBS and stained with a 2% crystal violet solution. After extensive water washing to remove excess crystal violet, plates were dried overnight. Crystal violet was extracted by incubation for 15 min in 10% acetic acid and absorbance at 562 nm determined as an indicator of number of cells bound. Each experiment was performed in triplicate, with triplicate samples per condition.

Assay [2] deals with chick embryo fibroblasts (CEF's). Description: Cell adhesion assay, adhesion to fibronectin. The class given is cell-based.
Description: as §1, §2, §3

Assay [3] relates to α5^+ HT29 colon carcinoma cells, CEF's and HUVEC's. Description: Cell adhesion assay, attachment to vitronectin. The class given is cell-based. Conditions: vitronectin coating.
Description: as §1
The wells of 48 well culture dishes (Costar, Inc.) were coated with 1 μg/ml vitronectin, 2 μg/ml fibronectin (chick embryo fibroblasts and HUVEC's) or 10 μg/ml fibronectin (HT29-α5^+ cells) for 1 hr at 37° C., then blocked with 2% heat denatured BSA in PBS for 1 hr. […]
Cells were allowed to adhere to dishes for 20 min at 37° C. […] Crystal violet was extracted by incubation for 15 min in 10% acetic acid and absorbance at 562 nm determined as an indicator of number of cells bound. […]

For assay [4], the system named is bFGF-induced angiogenesis on the chick CAM. Description: In ovo chick CAM angiogenesis assay, bFGF stimulated. It counts as in vivo. As to conditions: bFGF stimulated CAM. An excerpt: (§4) Ten day old embryonated chicken eggs (McIntyre Poultry; Ramona Calif.) were candled to illuminate blood vessels under the shell and an area with a minimum of small blood vessels is identified. The CAM was dropped away from the eggshell in this area by grinding a small hole in the mineralized shell and applying pressure to the underlying inner shell membrane. This procedure caused an air pocket to shift from the wide end of the egg to the identified area and forcing a circular region of the CAM approximately 2 cm in diameter to drop away from the shell. A window was cut in the egg shell and a cortisone acetate pre-treated filter disc 5 mm in diameter that had been saturated in 1 μg/ml bFGF, VEGF, TNFα, IL-8 (Genzyme, Inc.; Cambridge Mass.) or saline was placed on the CAM. The window in the shell was sealed with adhesive tape and the egg was incubated for four days.
(§5) Anti-fibronectin antibodies (25 μg in 25 μl) also were applied topically to the CAM.
(§6) Fibronectin, vitronectin and fibronectin fragments (59 pmol in a final volume of 25 μl) were applied to stimulated or unstimulated CAM's. Peptide or small molecule antagonists of α5β1 (at a final serum concentration of 0–25 μM) also were injected intravenously into the chick circulation 24 hr later. CAM's were harvested on the fourth day of stimulation. Blood vessel branch points in the 5 mm filter disk area were counted at 30× magnification in a blinded fashion as a size-independent quantitative indicator of vascular sprouting in response to growth factors. Angiogenesis is characterized by the sprouting of new vessels in response to growth factors. Thus, counting of blood vessel branch points is a useful quantitative means of obtaining an angiogenic index (Brooks et al., In “Methods in Molecular Biology” (Humana Press 1999). At least ten embryos were used per treatment group. Each experiment was performed a minimum of three times.
(§7) Data was evaluated in terms of average number of blood vessel branch points per treatment group +/−standard error of measurement . Statistical analyses were performed using Student's t-test. Representative CAMS from each treatment group were photographed at 10X magnification. In some cases, CAM tissue excised from the egg was frozen in OCT (Baxter; McGraw Park Ill.) in liquid nitrogen, cut into 5 μm sections, air dried and processed for immunohistochemical analysis as described in Example I, except without fixation.

Assay [5] has as its system VEGF-induced angiogenesis on the chick CAM. Description: In ovo chick CAM angiogenesis assay, VEGF stimulated. It counts as in vivo. Conditions: VEGF stimulated CAM.
Description: as §4, §5, §6, §7

A further assay addresses T1, integrin αVβ3 (Homo sapiens, UniProt P05106+P06756).
T1 construct: Integrin αVβ3 and α5β1 receptor purified from human placenta were obtained from Chemicon International; purchased Chemicon International; host or cells: purified from human placenta (natural tissue)
The experiment in a line: Integrin receptor ligand binding assay (biotinylated vitronectin). As to conditions: vitronectin as ligand. The method, then:
Integrin αVβ3 and α5β1 receptor purified from human placenta were obtained from Chemicon International. Platelet integrin αIIbβ3 was purified from platelets according to established procedures. Receptors were coated (100 μl/well) on Costar (3590) high capacity binding plates overnight at 4° C. Coating solution was discarded and plates were washed once with blocking/binding (B/B) buffer (50 mM Tris HCl, pH 7.4, 100 mM NaCl, 2 mM CaCl, 1 mM MgCl2, 1 mM MnCl2 and 1% BSA).
One hundred ten microliters of B/B buffer was applied for 60 min at RT. Thirty μl of biotinylated extracellular matrix protein ligand (fibronectin for integrin α5β1, vitronectin for integrin αVβ3 and fibrinogen for integrin αIIbβ3) plus 50 μl of either SJ749 in B/B buffer or B/B buffer alone were added to each well, and incubated for 25 min at RT. Plates were washed twice with B/B buffer and incubated 1 hr at RT, with anti-biotin alkaline phosphatase (100 μl/well) in B/B buffer. Finally, plates were washed twice with B/B followed by the addition of 100 μl of phosphatase substrate (1.5 mg/ml). Reaction was stopped by adding 2N NaOH (25 μl/well), and the developed color was read at 405 nm.

Entries after “also recorded” stand apart in the source; their conditions may differ.

We go through one compound from US7056506B2, “Methods for detecting and inhibiting angiogenesis” (The Regents of the University of California, priority 1998, dated 2006).

T1 sequence (P06756 31-889 limits assumed): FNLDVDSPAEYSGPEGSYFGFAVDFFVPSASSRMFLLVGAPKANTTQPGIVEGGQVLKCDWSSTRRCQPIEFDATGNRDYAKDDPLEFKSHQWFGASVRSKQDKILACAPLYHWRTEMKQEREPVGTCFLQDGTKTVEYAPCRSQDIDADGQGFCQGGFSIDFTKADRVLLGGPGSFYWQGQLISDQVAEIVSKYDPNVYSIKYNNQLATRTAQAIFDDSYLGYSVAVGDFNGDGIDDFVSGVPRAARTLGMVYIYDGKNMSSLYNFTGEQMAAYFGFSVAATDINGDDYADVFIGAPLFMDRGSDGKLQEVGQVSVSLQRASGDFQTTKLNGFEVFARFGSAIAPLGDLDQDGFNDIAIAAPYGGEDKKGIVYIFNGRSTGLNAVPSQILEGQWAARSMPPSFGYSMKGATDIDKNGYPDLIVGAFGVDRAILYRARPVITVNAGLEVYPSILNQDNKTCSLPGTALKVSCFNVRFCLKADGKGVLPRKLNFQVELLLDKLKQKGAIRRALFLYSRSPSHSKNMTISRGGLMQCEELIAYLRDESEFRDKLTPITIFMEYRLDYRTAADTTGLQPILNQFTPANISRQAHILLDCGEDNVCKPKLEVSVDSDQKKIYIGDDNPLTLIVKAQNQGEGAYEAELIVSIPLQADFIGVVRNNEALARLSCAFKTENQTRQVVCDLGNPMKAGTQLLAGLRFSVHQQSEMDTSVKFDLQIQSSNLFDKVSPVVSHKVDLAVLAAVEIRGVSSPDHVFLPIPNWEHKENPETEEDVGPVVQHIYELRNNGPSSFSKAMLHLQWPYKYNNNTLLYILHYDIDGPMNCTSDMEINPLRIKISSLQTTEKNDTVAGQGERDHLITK
T1 sequence (P06756 891-1048 partner limits assumed): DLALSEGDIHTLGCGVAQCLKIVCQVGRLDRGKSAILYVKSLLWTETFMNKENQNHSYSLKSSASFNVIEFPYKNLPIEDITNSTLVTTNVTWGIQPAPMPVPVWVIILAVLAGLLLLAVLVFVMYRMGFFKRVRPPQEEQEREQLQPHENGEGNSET
T1 sequence (P05106 27-788): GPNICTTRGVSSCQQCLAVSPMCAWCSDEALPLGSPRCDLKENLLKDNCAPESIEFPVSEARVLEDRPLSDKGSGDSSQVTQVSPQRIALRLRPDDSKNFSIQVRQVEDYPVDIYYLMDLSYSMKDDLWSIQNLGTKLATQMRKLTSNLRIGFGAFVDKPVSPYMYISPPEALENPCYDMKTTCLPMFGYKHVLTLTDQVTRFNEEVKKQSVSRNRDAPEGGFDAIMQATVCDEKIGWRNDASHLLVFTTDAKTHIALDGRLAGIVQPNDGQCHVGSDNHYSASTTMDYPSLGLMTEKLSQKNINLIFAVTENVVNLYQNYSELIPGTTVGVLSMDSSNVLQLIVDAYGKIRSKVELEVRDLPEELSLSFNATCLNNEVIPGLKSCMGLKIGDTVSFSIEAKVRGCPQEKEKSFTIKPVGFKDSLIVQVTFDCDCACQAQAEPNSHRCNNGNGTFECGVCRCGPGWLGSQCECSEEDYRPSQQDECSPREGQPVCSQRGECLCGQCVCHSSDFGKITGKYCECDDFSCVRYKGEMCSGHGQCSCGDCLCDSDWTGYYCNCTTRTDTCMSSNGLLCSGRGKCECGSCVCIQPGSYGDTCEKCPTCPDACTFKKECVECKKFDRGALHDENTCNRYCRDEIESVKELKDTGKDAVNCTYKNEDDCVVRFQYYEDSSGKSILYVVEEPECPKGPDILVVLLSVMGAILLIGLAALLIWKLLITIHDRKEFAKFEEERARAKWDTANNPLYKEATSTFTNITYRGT

With `Cc1cc(C)c(S(=O)(=O)N[C@@H](CNC(=O)C2=NOC3(C2)CC(CNc2ccccn2)N(C(=O)OCc2ccccc2)C3)C(=O)O)c(C)c1` (stereo partly shown) [SJ749], the “effect on adhesion to fibronectin” value in the assay on α5^+ HT29 cells is on record as “inhibitory effect”; in assay [1] it was “blocked”; in assay [2], “blocked”. Moreover, in assay [3], the “effect on cell attachment to vitronectin” value is listed as “ineffective”. Further, the “effect on bFGF-induced angiogenesis” value in assay [4] is given as “blocked; also recorded: dose dependent inhibitory effect; also recorded: reduced or inhibited angiogenesis in a dose dependent manner”. The “effect on VEGF angiogenesis” value in assay [5] is “did not block”. Also, the “effect on ligand binding to αVβ3 and other integrins” value at integrin αVβ3 was “substantially less effective”.
